Data published in PMC9487190 (Parasitology research, 2022).

How the values were obtained:
[1] = tested on: human cystic echinococcosis (CE); settings: ref Gottstein et al., 2015; Hemphill et al., 2014; cited from earlier work
EgSERT [2] = target: T1, EgSERT (Echinococcus granulosus, UniProt W6UF91); type: cell-based; settings: 50 nM radiolabeled substrate, 10 min, room temperature, COS-7 cells
EgSERT [3] = target: T1, EgSERT; type: cell-based; settings: at around 1 μM
[4] = tested on: protoscoleces of E. granulosus; settings: 100 μM; ref Camicia et al., 2013; Herz and Brehm, 2021; cited from earlier work
S. mansoni miracidia = settings: exogenously added, 50 μM; ref Taft et al., 2010; cited from earlier work
[5] = tested on: E. multilocularis metacestode vesicles and primary cells; settings: ref Herz and Brehm (2021), cited from earlier work
EgSERT [6] = target: T1, EgSERT; type: cell-based; settings: COS-7 cells, 15 nM – 10 μM serotonin, 10 min

For `CCCSc1ccc2nc(NC(=O)OC)[nH]c2c1` [ABZ, albendazole], the “share of CE cases in which treatment is ineffective” value [1] is listed as ~ 40%.
In the case of `NCCCC(=O)O` [GABA], the “transport of radiolabeled substrate by EgSERT compared with background” value (from here on “transport … compared with background”) (EgSERT [2]) is reported as “does not transport”.
For `CN(C)CCCC1(c2ccc(F)cc2)OCc2cc(C#N)ccc21` (stereo not drawn) [citalopram], the “inhibition of serotonin transport by EgSERT” value (EgSERT [3]) is given as “almost complete inhibition”, the “effect on motility and development of protoscoleces” value [4] is given as “strong inhibitory effect” and the “effect on miracidial transformation rates” value (S. mansoni miracidia) is given as “detrimental effect”.
For `NCCc1ccc(O)c(O)c1` [dopamine], the “transport … compared with background” value (EgSERT [2]) was “does not transport”.
With `N[C@@H](CCC(=O)O)C(=O)O` [glutamate, glutamic acid] the “transport … compared with background” value (EgSERT [2]) was “does not transport”.
In the case of `NCC(=O)O` [glycine], the “transport … compared with background” value (EgSERT [2]) is reported as “does not transport”.
In the case of `Fc1ccc([C@@H]2CCNC[C@H]2COc2ccc3c(c2)OCO3)cc1` [paroxetine], the “metacestode vesicle damage and viability of primary cell culture” value ([5]; 100 μM) is given as “significant metacestode vesicle damage and cell viability reduction”.
In the case of `NCCc1c[nH]c2ccc(O)cc12` [serotonin, 5-hydroxytryptamine], the “Vmax of serotonin uptake” value (EgSERT [6]) is listed as 615 ± 33 fmol/min/well, the “transport … compared with background” value (EgSERT [2]) is listed as “significantly higher accumulation” and the “metacestode vesicle formation and cell proliferation from primary cells” value ([5]; exogenous, dose dependent) is listed as “induces metacestode vesicle formation and cell proliferation”.
